Like-named read-outs stand apart in the source and are kept apart here.
Experiments:
ERCC1-XPF endonuclease = target: T1, ERCC1-XPF endonuclease (Homo sapiens, UniProt P07992+Q92889); test: fluorescence based DNA incision assay with purified ERCC1-XPF; assay type: biochemical; conditions: purified enzyme, forked fluorescent DNA substrate
T1 sequence (Q92889 1-916): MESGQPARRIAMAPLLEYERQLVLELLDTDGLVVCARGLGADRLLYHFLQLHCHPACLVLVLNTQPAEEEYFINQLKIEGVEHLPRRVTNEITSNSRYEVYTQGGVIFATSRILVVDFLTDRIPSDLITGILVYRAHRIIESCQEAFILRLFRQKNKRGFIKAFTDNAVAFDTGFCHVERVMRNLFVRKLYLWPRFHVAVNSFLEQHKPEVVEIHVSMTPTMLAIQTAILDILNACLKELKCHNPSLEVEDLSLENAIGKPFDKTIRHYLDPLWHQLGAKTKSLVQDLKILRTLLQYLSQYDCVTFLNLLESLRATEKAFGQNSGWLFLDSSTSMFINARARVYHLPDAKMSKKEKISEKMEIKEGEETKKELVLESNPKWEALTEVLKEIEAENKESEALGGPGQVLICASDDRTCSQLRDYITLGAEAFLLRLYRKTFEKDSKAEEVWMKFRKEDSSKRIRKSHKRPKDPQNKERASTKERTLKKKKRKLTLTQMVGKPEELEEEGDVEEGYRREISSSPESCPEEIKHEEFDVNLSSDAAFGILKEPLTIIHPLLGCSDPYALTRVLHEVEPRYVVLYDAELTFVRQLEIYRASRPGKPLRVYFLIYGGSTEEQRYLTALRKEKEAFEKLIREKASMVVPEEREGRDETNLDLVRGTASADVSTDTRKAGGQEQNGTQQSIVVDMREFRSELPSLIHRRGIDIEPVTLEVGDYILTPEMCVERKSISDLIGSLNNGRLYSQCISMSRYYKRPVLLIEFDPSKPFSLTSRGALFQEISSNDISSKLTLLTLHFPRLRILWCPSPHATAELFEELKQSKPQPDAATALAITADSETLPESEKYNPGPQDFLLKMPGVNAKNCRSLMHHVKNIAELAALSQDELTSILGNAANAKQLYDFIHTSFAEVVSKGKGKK
T1 sequence (P07992 1-297): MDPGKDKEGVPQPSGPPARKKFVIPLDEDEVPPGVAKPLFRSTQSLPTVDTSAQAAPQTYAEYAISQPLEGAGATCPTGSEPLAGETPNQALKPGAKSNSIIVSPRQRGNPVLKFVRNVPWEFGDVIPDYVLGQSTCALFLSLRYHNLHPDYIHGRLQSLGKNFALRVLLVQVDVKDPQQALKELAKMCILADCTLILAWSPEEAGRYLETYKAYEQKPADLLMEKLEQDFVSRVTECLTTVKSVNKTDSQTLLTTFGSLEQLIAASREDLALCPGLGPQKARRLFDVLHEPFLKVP
Excerpt: Described herein is a robust fluorescence based incision assay which was used to initially screen a diverse drug library (˜2,000 compounds) in order to identify inhibitors of the ERCC1-XPF endonuclease. From the initial screen, five (5) small molecule Hits were identified that inhibited ERCC1-XPF nuclease activity with micromolar to nanomolar potency.
(§1) For at least one reason, the lead compound was selected based on having nanomolar potency in the fluorescence assay (FIG. 2) and having the best response in enhancing cisplatin efficacy in cell culture models. Titration of lead compound in the ERCC1-XPF fluorescence assay yields an IC50 value of 400-500 nM (FIG. 2).
(§2) The synthesized compounds were tested in the in vitro fluorescence incision assay and radiolabeled DNA incision assay for potency and selectivity against ERCC1-XPF. These assays are based on forked synthetic DNA substrates and purified enzyme. The fluorescent DNA substrate is designed such that a fluorophore (Fl) is incorporated into the top DNA strand while a quencher (Q) molecule is incorporated in the bottom DNA strand and in close proximity to the Fl (FIG. 5).
When the DNA substrate is annealed, the Q quenches the fluorescent signal and results in low background fluorescence. […]

ERCC1-XPF = target: T2, ERCC1-XPF (Homo sapiens, UniProt P07992+Q92889); test: radiolabeled DNA incision assay (radiometric inhibition assay); assay type: biochemical; conditions: read-out: 50% inhibition in radiometric inhibition assay
T2 sequence (Q92889 1-916): T1 sequence (Q92889 1-916)
T2 sequence (P07992 1-297): T1 sequence (P07992 1-297)
Protocol: as §1, §2

[1] = tested on: cisplatin resistant ovarian cancer cell line (2008/C13*5.25); test: colony survival with cisplatin IC50 concentration, lead compound titrated (Combination Factor); assay type: cell-based; conditions: 2008/C13*5.25, colony survival
Protocol: (§3) Cells were treated with the cisplatin IC50 concentration while the lead compound was titrated into the experiment, and colony survival assessed. The Combination Factor is the concentration of lead compound that is required to enhance cisplatin IC50 values by 2-fold.

[2] = tested on: lung cancer cell line (H460); test: as above; assay type: cell-based
Protocol: as §3

cell culture = test: enhancement of cisplatin efficacy in cell culture; assay type: cell-based
Excerpt: The Tosyl adduct is necessary for compound 1's ability to enhance cisplatin activity and inhibit DNA repair. Without this functionality, no activity in cell culture was observed. Derivatives synthesized in Pathways B and C, take further advantage of the Tosyl functional group, including the sulfonate linkage itself. Pathway B focuses on varying the substitution on the toluene ring. By substitution of the methyl substituent with hydrogen (3a), as well as a halogen (3c) or a propyl group (3d), steric tolerance is adjusted at this position. Alternatively, addition of a heteroatom within the aromatic ring, whether it is an oxygen (3e) or a nitrogen (3f), has little effect upon the steric environment but alters the electronic nature of this key substituent. Removal of the aromatic ring and replacement with an alkene (3b) encompasses both the steric and electronic features at this position. Pathway C exemplifies compounds with differing linkers to the tosyl moiety, namely substitution of the sulfonate as a thioether (4a), sulfoxide (4b), ester (4c), and ether (4d) or amine (4e).

[3] = tested on: 2008/C13*5.25 (resistant) ovarian cancer cell line; test: colony survival after ERCC1-XPF siRNA and cisplatin treatment; assay type: cell-based; conditions: control siRNA; 2008/C13*5.25 vs 2008
Excerpt: FIG. 1: Colony survival in matched ovarian cancer cell lines. 2008 (sensitive, squares) and 2008/C13*5.25 (resistant, circles) ovarian cancer cell lines were transfected with control or ERCC1-XPF siRNA and subjected to cisplatin treatment. IC50 values are indicated.
In order to assess whether ERCC1-XPF influences cisplatin resistance in ovarian cancer cell lines, a matched set of parental sensitive (2008s) and daughter resistant cell lines (2008/C13*5.25) were obtained. These are well characterized cell lines for assessing cisplatin resistance and effects in ovarian cancer.
Following greater than 90% ERCC1-XPF knockdown (data not shown), the resistant daughter cell line has a nearly 5-fold change in cisplatin sensitivity, making the cells as sensitive as the parental sensitive cell line (compare open circles with filled squares).

For Cc1ccc(S(=O)(=O)Oc2cc(S(=O)(=O)O)cc3cc(S(=O)(=O)O)cc(N)c23)cc1 [compound 1], the IC50 (ERCC1-XPF endonuclease; read-out: IC50 (50% inhibition) in ERCC1-XPF fluorescence assay) was 0.4 to 0.5 µM, the IC50 (ERCC1-XPF) was 0.4 to 0.5 µM and the “Combination Factor: concentration of lead compound required to enhance cisplatin IC50 values by 2-fold” value [1] was “low micromolar range”. The “Combination Factor: concentration of lead compound required to enhance cisplatin IC50 values by 2-fold” value [2] was 7 to 8 µM and the IC50 (cell culture; with cisplatin, cell line not stated, read-out: enhancing cisplatin efficacy in cell culture (IC50)) was 4 µM.

COc1cc(S(=O)(=O)O)cc2cc(S(=O)(=O)O)cc(N)c12 [boxed portion of the molecule, reference compound] was tested, and the IC50 (ERCC1-XPF endonuclease; read-out: 50% fluorescent inhibition in the fluorescence incision assay) was 3.2 to 3.6 µM and the “effect in cell culture” value (cell culture; data not shown) was “no effect”.

N.N.[Cl][Pt][Cl] [cisplatin] was tested, and the “fold resistance to cisplatin, comparing IC50 values to the parental sensitive cell line” value [3] was roughly 4 fold.

— patent publication US9821008B2, “Inhibitors of ERCC1-XPF and methods of using the same” (The University of Toledo, priority 2013, dated 2017)
